Test results from ChEMBL document CHEMBL3885861, “Open TG-GATES”.

Species on record: Rattus norvegicus
Test: Open TG-GATES - Regimen: Single
Assay type: toxicity, organism-based, Sprague-Dawley
Parameters: regimen Single, gender Male, age 6 weeks
Conditions: in vivo, po, 0 mg/kg, route gavage, dose level Control; for APTT / Bas / Eos / Fbg / Hb / Ht / Lym / MCH / MCHC / MCV / Mono / Neu / PT / Plat / RBC / Ret / WBC: tissue Blood; for KIDNEY_L / KIDNEY_R / KIDNEY_TOTAL: tissue Kidney; for LIVER: tissue Liver; for A/G / ALP / ALT / AST / BUN / CRE / Ca / Cl / DBIL / GLC / IP / K / LDH / Na / PL / RALB / TBIL / TC / TG / TP / gamma-GTP: tissue Plasma

## O=C(O)COc1nn(Cc2ccccc2)c2ccccc12 [BENDAZAC]
3 h
  TERMINAL_BW: 211 g
  APTT: 17.2 s
  Bas: 0%
  Eos: 0.8%
  Fbg: 208.8 mg/dL
  Hb: 13.6 g/dL
  Ht: 40.7%
  Lym: 77.2%
  MCH: 21.7 pg
  MCHC: 33.3%
  MCV: 65.1 fL
  Mono: 10.4%
  Neu: 12%
  PT: 11.2 s
  Plat: 119 x10_4/uL
  RBC: 625 x10_4/ul
  Ret: 8.9%
  WBC: 108.6 x10_2/uL
  KIDNEY_L: 0.9 g
  KIDNEY_R: 1 g
  KIDNEY_TOTAL: 1.9 g
  LIVER: 10 g
  A/G: 2.2
  ALP: 955 IU/L
  ALT: 37.2 IU/L
  AST: 65.8 IU/L
  BUN: 12.4 mg/dL
  CRE: 0.5 mg/dL
  Ca: 10.9 mg/dL
  Cl: 103.8 meq/L
  DBIL: 0.008 mg/dL
  GLC: 199.4 mg/dL
  IP: 8.2 mg/dL
  K: 4.5 meq/L
  LDH: 89.4 IU/L
  Na: 139.8 meq/L
  PL: 145.4 mg/dL
  RALB: 3.7 g/dL
  TBIL: 0.3 mg/dL
  TC: 81 mg/dL
  TG: 67 mg/dL
  TP: 5.4 g/dL
  gamma-GTP: 1 IU/L
6 h
  TERMINAL_BW: 209.6 g
  APTT: 17.5 s
  Bas: 0%
  Eos: 0.8%
  Fbg: 200.2 mg/dL
  Hb: 13.9 g/dL
  Ht: 41.5%
  Lym: 77.2%
  MCH: 21.6 pg
  MCHC: 33.4%
  MCV: 64.7 fL
  Mono: 8.4%
  Neu: 13.4%
  PT: 11.7 s
  Plat: 123 x10_4/uL
  RBC: 642.4 x10_4/ul
  Ret: 10%
  WBC: 96.6 x10_2/uL
  KIDNEY_L: 1 g
  KIDNEY_R: 1 g
  KIDNEY_TOTAL: 2 g
  LIVER: 9.4 g
  A/G: 2.2
  ALP: 801.4 IU/L
  ALT: 33.2 IU/L
  AST: 59.8 IU/L
  BUN: 11.6 mg/dL
  CRE: 0.5 mg/dL
  Ca: 10.7 mg/dL
  Cl: 105.6 meq/L
  DBIL: 0.054 mg/dL
  GLC: 186.8 mg/dL
  IP: 9.6 mg/dL
  K: 4.8 meq/L
  LDH: 75.2 IU/L
  Na: 140.8 meq/L
  PL: 135.6 mg/dL
  RALB: 3.6 g/dL
  TBIL: 0.5 mg/dL
  TC: 72.6 mg/dL
  TG: 75.8 mg/dL
  TP: 5.2 g/dL
  gamma-GTP: 2 IU/L
9 h
  TERMINAL_BW: 211.9 g
  APTT: 16.6 s
  Bas: 0%
  Eos: 1.2%
  Fbg: 206.4 mg/dL
  Hb: 13.5 g/dL
  Ht: 40.3%
  Lym: 76.8%
  MCH: 22 pg
  MCHC: 33.5%
  MCV: 65.8 fL
  Mono: 9.6%
  Neu: 12.8%
  PT: 11.8 s
  Plat: 107.3 x10_4/uL
  RBC: 613.4 x10_4/ul
  Ret: 10.7%
  WBC: 98.1 x10_2/uL
  KIDNEY_L: 1 g
  KIDNEY_R: 1 g
  KIDNEY_TOTAL: 2 g
  LIVER: 9 g
  A/G: 2.1
  ALP: 700.2 IU/L
  ALT: 30 IU/L
  AST: 64.4 IU/L
  BUN: 10.8 mg/dL
  CRE: 0.6 mg/dL
  Ca: 10.6 mg/dL
  Cl: 106 meq/L
  DBIL: 0.056 mg/dL
  GLC: 197.2 mg/dL
  IP: 9.9 mg/dL
  K: 4.6 meq/L
  LDH: 75 IU/L
  Na: 143 meq/L
  PL: 134.4 mg/dL
  RALB: 3.7 g/dL
  TBIL: 0.4 mg/dL
  TC: 73.4 mg/dL
  TG: 44.2 mg/dL
  TP: 5.5 g/dL
  gamma-GTP: 1.8 IU/L
24 h
  TERMINAL_BW: 229.7 g
  APTT: 17 s
  Bas: 0%
  Eos: 1%
  Fbg: 210.8 mg/dL
  Hb: 13.5 g/dL
  Ht: 39.7%
  Lym: 77.2%
  MCH: 22.2 pg
  MCHC: 34%
  MCV: 65.2 fL
  Mono: 9.6%
  Neu: 12.4%
  PT: 12 s
  Plat: 125.1 x10_4/uL
  RBC: 609.6 x10_4/ul
  Ret: 9.8%
  WBC: 103.2 x10_2/uL
  KIDNEY_L: 1 g
  KIDNEY_R: 1 g
  KIDNEY_TOTAL: 2 g
  LIVER: 10.7 g
  A/G: 2
  ALP: 978 IU/L
  ALT: 39.8 IU/L
  AST: 67.2 IU/L
  BUN: 17.8 mg/dL
  CRE: 0.6 mg/dL
  Ca: 11 mg/dL
  Cl: 104.6 meq/L
  DBIL: 0.006 mg/dL
  GLC: 194.2 mg/dL
  IP: 7.9 mg/dL
  K: 4.8 meq/L
  LDH: 80.6 IU/L
  Na: 140.4 meq/L
  PL: 144.6 mg/dL
  RALB: 3.7 g/dL
  TBIL: 0.3 mg/dL
  TC: 77.2 mg/dL
  TG: 102 mg/dL
  TP: 5.6 g/dL
  gamma-GTP: 1.2 IU/L
